According to patent US20250230193A1, “CYCLIC COMPOUND HAVING SELECTIVE KRAS INHIBITORY EFFECT ON HRAS AND NRAS” (CHUGAI SEIYAKU KABUSHIKI KAISHA, priority 2022, published 2025):

How the values were obtained:
[1] = target: GDP-bound NRAS wild-type protein (Homo sapiens, UniProt P01111); test: Binding to NRAS by surface plasmon resonance (SPR), Single Cycle Kinetics; details: KD ratio NRAS/KRAS, class symbols
[2] = target: GDP-bound HRAS wild-type protein (Homo sapiens, UniProt P01112); test: Binding to HRAS by surface plasmon resonance (SPR), Single Cycle Kinetics; details: KD ratio HRAS/KRAS, class symbols
Chain of GDP-bound HRAS wild-type protein (P01112 whole entry): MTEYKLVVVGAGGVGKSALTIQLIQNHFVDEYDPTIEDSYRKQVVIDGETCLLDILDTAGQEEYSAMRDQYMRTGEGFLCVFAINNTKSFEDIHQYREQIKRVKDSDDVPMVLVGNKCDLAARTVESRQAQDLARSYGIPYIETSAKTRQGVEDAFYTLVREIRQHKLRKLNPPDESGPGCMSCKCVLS

Chain of GDP-bound NRAS wild-type protein (P01111 whole entry): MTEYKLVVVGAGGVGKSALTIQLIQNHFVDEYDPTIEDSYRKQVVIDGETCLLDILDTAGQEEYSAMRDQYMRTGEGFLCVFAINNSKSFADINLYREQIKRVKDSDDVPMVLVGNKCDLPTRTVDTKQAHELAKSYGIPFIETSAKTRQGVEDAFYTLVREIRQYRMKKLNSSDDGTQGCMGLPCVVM

SMILES	NRAS/KRAS (ratio of KD value with respect to GDP-bound NRAS wild-type protein to KD value with respect to KRAS) [1]	HRAS/KRAS (ratio of KD value with respect to GDP-bound HRAS wild-type protein to KD value with respect to KRAS) [2]
CC[C@H](C)[C@@H]1NC(=O)[C@H](COC)N(C)C(=O)C[C@@H](C(=O)N(C)C)N(C)C(=O)[C@H](C2CCCC2)N(C)C(=O)C2(CC(C)(C)C2)NC(=O)[C@@H]2C[C@@H](OC3CCCC3)CN2C(=O)[C@H](CCc2cc(F)c(C(F)(F)F)c(F)c2)NC(=O)CN(C)C(=O)[C@H](CC2CCCCC2)N2CC/C=C\C[C@@H](C2=O)N(C)C(=O)CN(C2CC2)C1=O [PP2630]	A (a compound having 10 or more and less than 20 is denoted as A)	B (a compound having 3 or more and less than 10 is denoted as B)
CCC(CC)[C@H]1C(=O)N(C)[C@H](C(=O)N(C)C)CC(=O)N(C)[C@@H](COC)C(=O)N[C@@H]([C@@H](C)CC)C(=O)N(C2CC2)CC(=O)N(C)[C@H]2C/C=C\CCN(C2=O)[C@@H](Cc2ccc(C(F)F)cc2)C(=O)N(C)CC(=O)N[C@@H](CCc2cc(F)c(C(F)(F)F)c(F)c2)C(=O)N2C[C@H](OC3CCC3)C[C@H]2C(=O)NC2(CC(C)(C)C2)C(=O)N1C [PP2631]	AA (a compound having 20 or more is denoted as AA)	A (a compound having 10 or more and less than 20 is denoted as A)
CCC(CC)[C@H]1C(=O)N(C)[C@H](C(=O)N(C)C)CC(=O)N(C)[C@@H](COC)C(=O)N[C@@H]([C@@H](C)CC)C(=O)N(C2CC2)CC(=O)N(C)[C@H]2C/C=C\CCN(C2=O)[C@@H](Cc2ccc(C(F)F)cc2)C(=O)N(C)CC(=O)N[C@@H](CCc2cc(F)c(C(F)(F)F)c(F)c2)C(=O)N2C[C@H](OC3CCCC3)C[C@H]2C(=O)NC2(CC(C)(C)C2)C(=O)N1C [PP2633]	AA (a compound having 20 or more is denoted as AA)	A (a compound having 10 or more and less than 20 is denoted as A)
CC[C@H](C)[C@@H]1NC(=O)[C@H](COC)N(C)C(=O)C[C@@H](C(=O)N(C)C)N(C)C(=O)[C@H](C2CCCC2)N(C)C(=O)C2(CC(C)(C)C2)NC(=O)[C@@H]2C[C@@H](OC3CCCC3)CN2C(=O)[C@H](CCc2cc(F)c(C(F)(F)F)c(F)c2)NC(=O)CN(C)C(=O)[C@H](CC2CCC(F)(F)CC2)N2CC/C=C\C[C@@H](C2=O)N(C)C(=O)CN(C2CC2)C1=O [PP2634]	A (a compound having 10 or more and less than 20 is denoted as A)	A (a compound having 10 or more and less than 20 is denoted as A)
CCO[C@@H]1C[C@H]2C(=O)NC3(CC(C)(C)C3)C(=O)N(C)[C@@H](C(CC)CC)C(=O)N(C)[C@H](C(=O)N(C)C)CC(=O)N(C)[C@@H](COC)C(=O)N[C@@H]([C@@H](C)CC)C(=O)N3CCC[C@H]3C(=O)N(C)[C@H]3C/C=C\CCN(C3=O)[C@@H](Cc3ccc(C(F)(F)F)cc3)C(=O)N(C)CC(=O)N[C@@H](CCc3ccc(Cl)c(Cl)c3)C(=O)N2C1 [PP2635]	AA (a compound having 20 or more is denoted as AA)	A (a compound having 10 or more and less than 20 is denoted as A)
CCC[C@H]1C(=O)N[C@@H]([C@@H](C)CC)C(=O)N2CCC[C@H]2C(=O)N(C)[C@H]2C/C=C\CCN(C2=O)[C@@H](Cc2ccc(C(F)F)cc2)C(=O)N(C)CC(=O)N[C@@H](CCc2ccc(Cl)c(Cl)c2)C(=O)N2C[C@H](OCC)C[C@H]2C(=O)NC2(CC(C)(C)C2)C(=O)N(C)[C@@H](C(CC)CC)C(=O)N(C)[C@H](C(=O)N(C)C)CC(=O)N1C [PP2637]	AA (a compound having 20 or more is denoted as AA)	A (a compound having 10 or more and less than 20 is denoted as A)
CCC[C@H]1C(=O)N[C@@H]([C@@H](C)CC)C(=O)N2CCC[C@H]2C(=O)N(C)[C@H]2C/C=C\CCN(C2=O)[C@@H](Cc2ccc(C)cc2)C(=O)N(C)CC(=O)N[C@@H](CCc2ccc(Cl)c(Cl)c2)C(=O)N2C[C@H](OCC)C[C@H]2C(=O)NC2(CC(C)(C)C2)C(=O)N(C)[C@@H](C(CC)CC)C(=O)N(C)[C@H](C(=O)N(C)C)CC(=O)N1C [PP2638]	AA (a compound having 20 or more is denoted as AA)	A (a compound having 10 or more and less than 20 is denoted as A)
CCC(CC)[C@H]1C(=O)N(C)[C@H](C(=O)N(C)C)CC(=O)N(C)[C@@H](COC)C(=O)N[C@@H]([C@@H](C)CC)C(=O)N2CCC[C@H]2C(=O)N(C)[C@H]2C/C=C\CCN(C2=O)[C@@H](Cc2ccc(C(F)(F)F)cc2)C(=O)N(C)CC(=O)N[C@@H](CCc2ccc(Cl)c(Cl)c2)C(=O)N2C[C@H](OC(C)C)C[C@H]2C(=O)NC2(CC(C)(C)C2)C(=O)N1C [PP2639]	AA (a compound having 20 or more is denoted as AA)	A (a compound having 10 or more and less than 20 is denoted as A)
CCC[C@H]1C(=O)N[C@@H]([C@@H](C)CC)C(=O)N2CCC[C@H]2C(=O)N(C)[C@H]2C/C=C\CCN(C2=O)[C@@H](Cc2ccc(C(F)F)cc2)C(=O)N(C)CC(=O)N[C@@H](CCc2ccc(Cl)c(Cl)c2)C(=O)N2C[C@H](OC(C)C)C[C@H]2C(=O)NC2(CC(C)(C)C2)C(=O)N(C)[C@@H](C(CC)CC)C(=O)N(C)[C@H](C(=O)N(C)C)CC(=O)N1C [PP2640]	AA (a compound having 20 or more is denoted as AA)	A (a compound having 10 or more and less than 20 is denoted as A)
CCC[C@H]1C(=O)N[C@@H]([C@@H](C)CC)C(=O)N2CCC[C@H]2C(=O)N(C)[C@H]2C/C=C\CCN(C2=O)[C@@H](Cc2ccc(C)cc2)C(=O)N(C)CC(=O)N[C@@H](CCc2ccc(Cl)c(Cl)c2)C(=O)N2C[C@H](OC(C)C)C[C@H]2C(=O)NC2(CC(C)(C)C2)C(=O)N(C)[C@@H](C(CC)CC)C(=O)N(C)[C@H](C(=O)N(C)C)CC(=O)N1C [PP2641]	AA (a compound having 20 or more is denoted as AA)	A (a compound having 10 or more and less than 20 is denoted as A)
CCC(CC)[C@H]1C(=O)N(C)[C@H](C(=O)N(C)C)CC(=O)N(C)[C@@H](COC)C(=O)N[C@@H]([C@@H](C)CC)C(=O)N(C)CC(=O)N(C)[C@H]2C/C=C\CCN(C2=O)[C@@H](Cc2ccc(C(F)(F)F)cc2)C(=O)N(C)CC(=O)N[C@@H](CCc2ccc(Cl)c(Cl)c2)C(=O)N2C[C@H](OC3CCC3)C[C@H]2C(=O)NC2(CC(C)(C)C2)C(=O)N1C [PP2642]	AA (a compound having 20 or more is denoted as AA)	A (a compound having 10 or more and less than 20 is denoted as A)
CCC[C@H]1C(=O)N[C@@H]([C@@H](C)CC)C(=O)N(C)CC(=O)N(C)[C@H]2C/C=C\CCN(C2=O)[C@@H](Cc2ccc(C(F)F)cc2)C(=O)N(C)CC(=O)N[C@@H](CCc2ccc(Cl)c(Cl)c2)C(=O)N2C[C@H](OC3CCC3)C[C@H]2C(=O)NC2(CC(C)(C)C2)C(=O)N(C)[C@@H](C(CC)CC)C(=O)N(C)[C@H](C(=O)N(C)C)CC(=O)N1C [PP2643]	AA (a compound having 20 or more is denoted as AA)	A (a compound having 10 or more and less than 20 is denoted as A)
CCC[C@H]1C(=O)N[C@@H]([C@@H](C)CC)C(=O)N(C)CC(=O)N(C)[C@H]2C/C=C\CCN(C2=O)[C@@H](Cc2ccc(C)cc2)C(=O)N(C)CC(=O)N[C@@H](CCc2ccc(Cl)c(Cl)c2)C(=O)N2C[C@H](OC3CCC3)C[C@H]2C(=O)NC2(CC(C)(C)C2)C(=O)N(C)[C@@H](C(CC)CC)C(=O)N(C)[C@H](C(=O)N(C)C)CC(=O)N1C [PP2644]	AA (a compound having 20 or more is denoted as AA)	A (a compound having 10 or more and less than 20 is denoted as A)
CCC(CC)[C@H]1C(=O)N(C)[C@H](C(=O)N(C)C)CC(=O)N(C)[C@@H](COC)C(=O)N[C@@H]([C@@H](C)CC)C(=O)N2CCC[C@H]2C(=O)N(C)[C@H]2C/C=C\CCN(C2=O)[C@@H](Cc2ccc(C(F)(F)F)cc2)C(=O)N(C)CC(=O)N[C@@H](CCc2ccc(Cl)c(Cl)c2)C(=O)N2C[C@H](OC3CCC3)C[C@H]2C(=O)NC2(CC(C)(C)C2)C(=O)N1C [PP2645]	AA (a compound having 20 or more is denoted as AA)	A (a compound having 10 or more and less than 20 is denoted as A)
CCC[C@H]1C(=O)N[C@@H]([C@@H](C)CC)C(=O)N2CCC[C@H]2C(=O)N(C)[C@H]2C/C=C\CCN(C2=O)[C@@H](Cc2ccc(C(F)F)cc2)C(=O)N(C)CC(=O)N[C@@H](CCc2ccc(Cl)c(Cl)c2)C(=O)N2C[C@H](OC3CCC3)C[C@H]2C(=O)NC2(CC(C)(C)C2)C(=O)N(C)[C@@H](C(CC)CC)C(=O)N(C)[C@H](C(=O)N(C)C)CC(=O)N1C [PP2646]	AA (a compound having 20 or more is denoted as AA)	A (a compound having 10 or more and less than 20 is denoted as A)
CCC(CC)[C@H]1C(=O)N(C)[C@H](C(=O)N(C)C)CC(=O)N(C)[C@@H](COC)C(=O)N[C@@H]([C@@H](C)CC)C(=O)N(C)CC(=O)N(C)[C@H]2C/C=C\CCN(C2=O)[C@@H](Cc2ccc(C(F)(F)F)cc2)C(=O)N(C)CC(=O)N[C@@H](CCc2ccc(Cl)c(Cl)c2)C(=O)N2C[C@H](OC3CCCC3)C[C@H]2C(=O)NC2(CC(C)(C)C2)C(=O)N1C [PP2648]	A (a compound having 10 or more and less than 20 is denoted as A)	A (a compound having 10 or more and less than 20 is denoted as A)
